US12503476B2, “Ring-fused 2-pyridone compounds, methods for preparation thereof and their use in the treatment and/or prevention of a disease involving gram-positive bacteria” (QURETECH BIO AB, priority 2020, dated 2025)
In brackets after ≈: the same amount, converted by molar mass. Read-outs that look alike come from different tables or passages of the source.

Assays:
E. faecalis [1] = assay: Minimum Inhibitory Concentration (MIC) assay, E. faecalis; format: cell-based, Enterococcus faecalis; conditions: for MIC: first figure of MIC/MBC, read-out: MIC for E. faecalis; for Growth inhibition of the pathogen of interest compared to the compound of Example 14 in WO 2018/229141: conclusion from Table 3 (E. faecalis and MRSA)
Experimental: (§1) The cultures (200 μl) were incubated at 37° C. for 24 h. […] The MIC was measured in micromolar concentration, i.e. μM. Objectively, this was determined by measuring the optical density (i.e. OD) of the test cultures at 600 nm using a spectrophotometer. As used herein, OD600 stands for optical density at a wavelength of 600 nm (i.e. 600 nanometers).

MRSA [2] = assay: Minimum Inhibitory Concentration (MIC) assay, MRSA; format: cell-based, Methicillin-resistant Staphylococcus aureus; conditions: 24 h, no antibiotic, 37° C., n.d. = activity not observed at the concentrations tested, read-out: MIC for MRSA
Experimental: as §1

E. faecalis OG1RF = assay: Combined activity with gentamicin, vancomycin or ampicillin, E. faecalis OG1RF; format: cell-based, Enterococcus faecalis; conditions: for OD600 at 24 h when combined with gentamicin / Synergistic effect when combined with gentamicin / E. faecalis activity, combination with gentamicin compared to gentamicin alone, compound alone and comparative example alone / E. faecalis activity, combination with gentamicin compared to the combination of the comparative example and gentamicin: gentamicin 16 μg/ml; for Synergistic effect when combined with gentamicin: 24 h; for E. faecalis activity, combination with gentamicin compared to gentamicin alone, compound alone and comparative example alone / E. faecalis activity, combination with gentamicin compared to the combination of the comparative example and gentamicin / E. faecalis activity, combination with vancomycin compared to vancomycin alone or compound alone: subinhibitory compound 1-4 μM, OD600 24 h; for E. faecalis activity, combination with vancomycin compared to vancomycin alone or compound alone: vancomycin 1 μg/ml
Experimental: (§2) […]. The concentrations used in the experiments with E. faecalis OG1RF were 16 μg/ml gentamicin, 1 μg/ml vancomycin or 1 μg/ml ampicillin. In experiments where combinations were tested against MRSA 1369, 0.05 μg/ml gentamicin, 1 μg/ml vancomycin or 16 μg/ml ampicillin was used.
(§3) Bacterial cultures (190 μl) at a starting OD=0.001 at OD600 were incubated together with either subinhibitory concentrations of gentamicin/vancomycin/ampicillin or compound alone, or a combination of the two. The cultures (200 μl) were incubated at 37° C. for 24 h. A control sample without compound and gentamicin/vancomycin/ampicillin but containing compound vehicle (DMSO) and gentamicin/vancomycin/ampicillin vehicle (MQ water) was performed the same way. After 24 h, the effect on bacterial growth compared to untreated control samples was determined by measuring optical density at 600 nm with a spectrophotometer.
[…]. MIC/MBC values for the compounds administered alone are also shown for comparison. Unless otherwise stated, the compound was provided in a concentration of 1 μM.

MRSA 1369 = assay: Combined activity with gentamicin, vancomycin or ampicillin, MRSA 1369; format: cell-based, Methicillin-resistant Staphylococcus aureus; conditions: subinhibitory compound 1-4 μM, OD600 24 h; for MRSA activity, combination with ampicillin compared to ampicillin alone or compound alone: ampicillin 16 μg/ml; for MRSA activity, combination with vancomycin compared to vancomycin alone or compound alone: vancomycin 1 μg/ml
Experimental: as §2, §3

MRSA [3] = assay: Minimum Bactericidal Concentration (MBC) assay, MRSA; conditions: compound alone, no antibiotic, MIC cultures plated on BHI, second figure of MIC/MBC, n.d. = activity not observed at the concentrations tested; for MBC: Staphylococcus aureus, MRSA, read-out: MBC for MRSA, Table 3
E. faecalis [4] = assay: Minimum Bactericidal Concentration (MBC) assay, E. faecalis
[5] = Enterococcus faecalis, 24 h, Table 3, compound alone, no antibiotic, 24 h, 37° C., OD600, n.d. = activity not observed at the concentrations tested
[6] = Enterococcus faecalis, Table 4, compound administered alone, n.d. = activity not observed
[7] = Staphylococcus aureus, MRSA, Table 3, compound alone, OD600, first figure of MIC/MBC
[8] = compound 1 μM, n.d. = activity not observed

Row | SMILES | MIC (E. faecalis [1]; [5]) [µM] | MIC (E. faecalis [1]; [6]) [µM] | MIC (MRSA [2]; [7]) [µM] | MIC (E. faecalis [1]; Table 3, compound alone, no antibiotic, 24 h, 37° C., OD600, n.d. = activity not observed at the concentrations tested) [µM] | MIC (MRSA [2]; Table 3, compound alone, OD600, first figure of MIC/MBC) [µM] | Growth inhibition of the pathogen of interest compared to the compound of Example 14 in WO 2018/229141 (E. faecalis [1]; compound alone) | OD600 at 24 h when combined with gentamicin (E. faecalis OG1RF; compound 1 μM) | Synergistic effect when combined with gentamicin (E. faecalis OG1RF; [8]) | E. faecalis activity, combination with gentamicin compared to gentamicin alone, compound alone and comparative example alone (E. faecalis OG1RF) | E. faecalis activity, combination with gentamicin compared to the combination of the comparative example and gentamicin (E. faecalis OG1RF) | MRSA activity, combination with ampicillin compared to ampicillin alone or compound alone (MRSA 1369) | MRSA activity, combination with vancomycin compared to vancomycin alone or compound alone (MRSA 1369) | MBC (MRSA [3]) [µM] | E. faecalis activity, combination with vancomycin compared to vancomycin alone or compound alone (E. faecalis OG1RF) | MRSA activity, combination with gentamicin compared to gentamicin alone or compound alone (MRSA 1369; gentamicin 0.05 μg/ml) | MBC (E. faecalis [4]; Enterococcus faecalis, read-out: MBC for E. faecalis) [µM] | Synergistic effect when combined with gentamicin (E. faecalis OG1RF; compound 2 μM) | MBC for MRSA (MRSA [3]; Table 3) [µM] | MBC for E. faecalis (E. faecalis [4]; Table 3, compound alone, no antibiotic, MIC cultures plated on BHI, second figure of MIC/MBC, n.d. = activity not observed at the concentrations tested) [µM]
1 | O=C(O)C12C[C@@H](c3cc(Cl)cc(Cl)c3)C1Sc1c(C3CC3)c(Cc3cccc4ccccc34)cc(=O)n12 (stereo partly drawn) [Example 15] | 3 (≈ 1.65 µg/mL) | 3 (≈ 1.65 µg/mL) | 2 (≈ 1.1 µg/mL) | – | – | substantially similar extent or to a higher extent | OD600 = 0 | Yes | much larger extent | much larger extent | much larger extent | much larger extent | 4 (≈ 2.19 µg/mL) | – | – | – | – | – | –
2 | O=C(O)C12C[C@@H](c3c(Cl)cccc3Cl)C1Sc1c(C3CC3)c(Cc3cccc4ccccc34)cc(=O)n12 (stereo partly drawn) [Example 33] | 5 (≈ 2.74 µg/mL) | – | 5 (≈ 2.74 µg/mL) | – | – | substantially similar extent or to a higher extent | – | – | much larger extent | much larger extent | much larger extent | much larger extent | – | much larger extent | – | – | – | – | –
3 | O=C(O)C12C[C@@H](c3cccc(Cl)c3)C1Sc1c(C3CC3)c(Cc3cc4ccccc4s3)cc(=O)n12 (stereo partly drawn) [Example 30] | 5 (≈ 2.6 µg/mL) | – | 5 (≈ 2.6 µg/mL) | – | – | – | – | – | much larger extent | much larger extent | – | much larger extent | – | much larger extent | much larger extent | – | – | – | –

Continued, in another order:

Row | MIC (E. faecalis [1]; [5]) [µM] | MIC (E. faecalis [1]; [6]) [µM] | MIC (MRSA [2]; [7]) [µM] | MIC (E. faecalis [1]; Table 3, compound alone, no antibiotic, 24 h, 37° C., OD600, n.d. = activity not observed at the concentrations tested) [µM] | MIC (MRSA [2]; Table 3, compound alone, OD600, first figure of MIC/MBC) [µM] | SMILES | Growth inhibition of the pathogen of interest compared to the compound of Example 14 in WO 2018/229141 (E. faecalis [1]; compound alone) | OD600 at 24 h when combined with gentamicin (E. faecalis OG1RF; compound 1 μM) | Synergistic effect when combined with gentamicin (E. faecalis OG1RF; [8]) | E. faecalis activity, combination with gentamicin compared to gentamicin alone, compound alone and comparative example alone (E. faecalis OG1RF) | E. faecalis activity, combination with gentamicin compared to the combination of the comparative example and gentamicin (E. faecalis OG1RF) | MRSA activity, combination with ampicillin compared to ampicillin alone or compound alone (MRSA 1369) | MRSA activity, combination with vancomycin compared to vancomycin alone or compound alone (MRSA 1369) | MBC (MRSA [3]) [µM] | E. faecalis activity, combination with vancomycin compared to vancomycin alone or compound alone (E. faecalis OG1RF) | MRSA activity, combination with gentamicin compared to gentamicin alone or compound alone (MRSA 1369; gentamicin 0.05 μg/ml) | MBC (E. faecalis [4]; Enterococcus faecalis, read-out: MBC for E. faecalis) [µM] | Synergistic effect when combined with gentamicin (E. faecalis OG1RF; compound 2 μM) | MBC for MRSA (MRSA [3]; Table 3) [µM] | MBC for E. faecalis (E. faecalis [4]; Table 3, compound alone, no antibiotic, MIC cultures plated on BHI, second figure of MIC/MBC, n.d. = activity not observed at the concentrations tested) [µM]
4 | 5 (≈ 2.95 µg/mL) | 5 (≈ 2.95 µg/mL) | 3 (≈ 1.77 µg/mL) | – | – | CN(C)c1c(Cc2cccc3ccccc23)c(C2CC2)c2n(c1=O)C1(C(=O)O)C[C@@H](c3cccc(C(F)(F)F)c3)C1S2 (stereo partly drawn) [Example 5] | substantially similar extent or to a higher extent | OD600 = 0 | Yes | much larger extent | much larger extent | – | – | 4 (≈ 2.36 µg/mL) | – | – | 25 (≈ 14.8 µg/mL) | – | – | –
5 | – | 10 (≈ 5.48 µg/mL) | – | 10 (≈ 5.48 µg/mL) | 5 (≈ 2.74 µg/mL) | O=C(O)C12C[C@@H](c3cccc(C(F)(F)F)c3)C1Sc1c(C3CC3)c(Cc3cccc4ccccc34)cc(=O)n12 (single isomer, unassigned) [Example 1] | – | – | – | – | – | – | – | – | – | – | – | Yes | 10 | 25
